Source: USRE47475E1, “Selective agents for pain suppression” (WiSys Technology Foundation, Inc., priority 2002, dated 2019)

Tests used:
[1] = system: Formalin Pain (mouse, i.p.); assay: T22 formalin test (chemically induced pain); assay type: in vivo
Protocol: This elicits a distinct bi-phasic behavioral profile in response to the formalin injection characterized by licking of the affected paw, and the number of licks is measured as a proxy for perceived pain. The first (acute) phase is thought to correspond to the direct stimulation of peripheral fibers while the second (inflammatory) phase is caused by the release of inflammatory mediators from the damaged tissue and nerve endings. Thus, this model is ideally suited for efficacy of an investigational AED against the acute and chronic hyper-responsive neuronal discharges following activation of peripheral nerve fibers.
The results of the formalin test are given both as raw data (“Response”) and in an aggregate, analyzed form (“Analysis”). In the Response section, each Trial involves sixteen animals, eight controls given an i.p. injection of vehicle and eight given the compound at a specified dose. Thus, for multiple doses of the compound, there will also be multiple control groups. The data recorded for each animal is the amount of time(s) spent licking the affected hind paw in a two minute period. These two minute periods occur at five minute intervals and continue for 45 minutes. […] From this plot, we can then determine the area under the curve (AUC) for each animal during both the acute and inflammatory stages. The AUC for each phase is shown in the analysis section of the data sheet for both control and drug-treated animals The AUC for each drug-treated animal is compared to the average result from the control group, yielding an average percent of control (reported with the SEM and p value).

[2] = system: locomotor activity of mice; assay: spontaneous locomotor activity (activity cage); assay type: in vivo
Protocol: Locomotor activity: Spontaneous locomotor activity was tested using a commercially available microprocessor equipped activity cage (actiframe, Gerb Elektronik). Mice were placed in the activity cage 15 min before testing. Locomotor activity was measured for 1 h after intraperitoneal administration of vehicle, gabapentin or HZ166 during the early light phase of the day-night cycle.

[3] = system: seizures; conditions: Rivas et al., 2009, cited from earlier work
[4] = system: rhesus monkeys; assay: conflict model of anxiolytic activity which also measures sedation; assay type: in vivo
Protocol: The data in FIGS. 21A-21F reflect the ability of the compounds or drugs to exert an anxioyic effect in rhesus monkeys (J. Rowlett, J. M. Cook et al., unpublished results) when given intravenously in propylene glycol/water solution. This is the conflict model of anxiolytic activity which also measures sedation. […] In FIG. 21B, SH-053-2′F (JY-XHE-053) is anxiolytic at a dose of greater than 0.13 mg/kg, but exerts only some slight sedation at doses greater than 1.2 mg/kg (responses decrease). In FIG. 21C it is clear the S-enantiomer of SH-053-2′F—S—CH3 is anxiolytic with no sedation up to 10-18 mg/kg, which is the highest dose tested.

[5] = system: neuropathic pain after CCI of the sciatic nerve; assay: tolerance development in the CCI model (chronic treatment); assay type: in vivo, mice; conditions: for tolerance development / loss of antihyperalgesic activity: 9-day treatment period in neuropathic mice
Protocol: Tolerance development: Possible development of tolerance against the antihyperalgesic effect of HZ166 was investigated in the CCI model. Starting from day 7 after CCI surgery, HZ166 at the dose of 16 mg/kg or vehicle were administered intraperitoneally once daily for 9 consecutive days. On day 10, each group (vehicle and HZ166) was subdivided in 2 subgroups: one received vehicle and the other HZ166 at the dose of 16 mg/kg. After the last injection, mechanical sensitivity was assessed for 3 hours.

[6] = system: motor coordination of mice; assay: rotarod test (motor impairment); assay type: in vivo; conditions: HZ166 16 and 48 mg/kg, gabapentin 10 and 30 mg/kg, i.p., 60 min after treatment
Protocol: Motor impairment: A possible impairment of motor function was analyzed in the rotarod test. Mice were trained on the rotarod (diameter 3 cm, 2 rpm) for 2 days. Animals capable of remaining on the rotarod in the absence of treatment for at least 2 min were selected for drug testing. On the test day, the latency to fall off the rod was recorded before and 60 minutes after treatment with vehicle, HZ166 or gabapentin.

[7] = system: Cyp; assay: Cyp profile
[8] = system: neuropathic pain after CCI of the sciatic nerve; assay: chronic constriction injury (CCI) model, mechanical sensitization (von Frey filaments); assay type: in vivo, mice

SMILES: C#Cc1ccc2c(c1)C(c1ccccn1)=NCc1c(C(=O)OCC)ncn1-2 [HZ-166, 8-Acetylenyl-6-pyridin-2-yl-4H-benzo[f]imidazo[1,5-a][1,4]diazepine-3-carboxylic acid ethyl ester]
- protection at the acute phase of chemically induced pain ([1]; formalin test, acute phase): significant protection
- Change (% of Control) ± SEM, T22 Formalin Pain, Acute ([1]; mouse, i.p., acute phase, dose 16 (HZ-166), 10 (JY-XHE-053), 1 (XLI-JY-DMH) mg/kg): 66.8 % of Control
- Change (% of Control) ± SEM, T22 Formalin Pain, inflammatory ([1]; mouse, i.p., inflammatory phase, dose 16 (HZ-166), 10 (JY-XHE-053), 1 (XLI-JY-DMH) mg/kg): 63 % of Control
- impairment of spontaneous motor activity ([2]; 16 and 48 mg/kg i.p.): did not significantly impair
- doses that did not impair spontaneous locomotor activity ([2]; i.p.): ≤ 48 mg/kg
- sedation ([2]; mouse model of neuropathic pain study): not sedating
- toxicity [3]: minimal
- anticonvulsive activity ([3]; at non-sedative doses): good anticonvulsive activity
- no sedation up to dose ([4]; conflict model): up to 10 mg/kg
- sedative activity (conflict model) ([4]; intravenously): no sedative activity
- anxiolytic effect (conflict model) ([4]; intravenously in propylene glycol/water): anxiolytic
- analgesic activity in mice chronically exposed to HZ166 versus drug-naïve mice ([5]; 16 mg/kg once daily for 9 days from day 7 after CCI, test on day 10): virtually the same
- tolerance development / loss of antihyperalgesic activity [5]: did not develop tolerance
- tolerance development / loss of antihyperalgesic activity ([5]; listed as HZ166): no loss
- interfered with rotarod performance [6]: Neither
- Cyp profile [7]: good
- analgesia, mechanical sensitivity (von Frey) in CCI model ([8]; 48 mg/kg, 160 mg/kg and 480 mg/kg i.p.): significant analgesia
- AUC of mechanical PWT, HZ166 followed by vehicle ([8]; HZ166 16 mg/kg i.p., vehicle 45 min later, n=6): 1.90 ± 0.29 g·h
- ED50 ([8]; Mus musculus, ip, 168 h, i.p., day 7 after CCI surgery, Hill fit, read-out: ED50, increase of ipsilateral PWT): 3.83 ± 0.94 mg/kg
- reversal of mechanical hypersensitivity ([8]; i.p., CCI model): dose-dependent reversal
- PWTs of the contralateral paw ([8]; i.p., day 7 after CCI surgery): not affected
- time of maximum effect on ipsilateral PWT after injection ([8]; i.p., day 7 after CCI surgery): about 1 h
- doses at which saturation of the antihyperalgesic effect was reached ([8]; i.p., mechanical PWT): ≥ 160 mg/kg
- doses with statistically significant antihyperalgesic effects ([8]; i.p., mechanical PWT): ≥ 16 mg/kg
- analgesic effects in the chronic constriction injury model of neuropathic pain ([8]; mouse, in vivo): analgesic effects
